Values quoted from earlier work, collected in US20100216994A1, “USE OF NOVEL COMPOUND HAVING AFFINITY FOR AMYLOID, AND PROCESS FOR PRODUCTION OF THE SAME” (NIHON MEDI-PHYSICS CO., LTD., priority 2007, published 2010).

Columns and labels:
[1] = International Publication No. WO03/106439; cited from earlier work
[2] = [^11C]-labeled, rats; cited from earlier work

Compound | reverse mutation test result [1] | clearance from normal tissues [2]
CC(=C(C#N)C#N)c1ccc2cc(N(C)CCF)ccc2c1 [FDDNP, 2-(1-{6-[(2-fluoroethyl)(methyl)amino]-2-naphthyl}ethylidene)malononitrile] | positive | –
CN(C)c1ccc(-c2cn3cc(I)ccc3n2)cc1 [IMPY, 6-iodo-2-[4′-(N,N-dimethylamino)phenyl]imidazo[1,2-a]pyridine] | positive | –
CNc1ccc(/C=C/c2ccc(O)cc2)cc1 [SB-13, (E)-4-methylamino-4′-hydroxystilbene] | – | it cannot be said that the clearance is sufficiently fast
